From US20250197428A1, “INHIBITORS OF KIF18A AND USES THEREOF” (ACCENT THERAPEUTICS, INC., priority 2022, published 2025)

Tests used:
OVCAR-3 cells = assay: In vitro anti-proliferative activity assay in cancer cell line OVCAR-3 (CellTiter-Glo, 4- or 7-day); type: cell-based; conditions: Homo sapiens, OVCAR-3, 96 h, 4-day assay; read-out: OVCAR-3 cellular antiproliferation assay IC50
[1] = tested on: human megakaryocyte (CFU-MK) progenitors from human bone marrow mononuclear cells; assay: Human megakaryocyte progenitor colony formation assay (CFU-MK); type: cell-based; conditions: 336 h, 14 days culture, adjusted for binding to assay buffer, read-out: Free-fraction adjusted CFU-MK IC50
[2] = Tolerability (body weight) in 28 day OVCAR-3 xenograft study; type: in vivo; conditions: all concentrations dosed, 28 day treatment
OVCAR-3 xenografts = assay: 28 day in vivo efficacy in OVCAR-3 xenografts; set-up: species or system female NOD SCID mice; conditions: day 28, 30 mg/kg once daily, oral
Procedure: Experiments were performed in female NOD SCID mice (GenPharmatech Co.). Animals were allowed to acclimate for 7 days before the study. The general health of the animals were evaluated by a veterinarian, and complete health checks were performed prior to the study. General procedures for animal care and housing were in accordance with the standard, Commission on Life Sciences, National Research Council, Standard Operating Procedures (SOPs) of Pharmaron, Inc. The mice were kept in laminar flow rooms at constant temperature and humidity with 3-5 mice in each cage. Animals were housed in polycarbonate cages which had dimensions of 300×180×150 mm^3 and in an environmentally monitored, well-ventilated room maintained at a temperature of 23±3° C. and a relative humidity of 40%-70%. Fluorescent lighting provided illumination approximately 12 hours per day. Animals had free access to irradiation sterilized dry granule food during the entire study period except for time periods specified by the protocol, as well as sterile drinking water in a bottle that was available ad libitum during the quarantine and study periods.
The OVCAR-3 (ATCC) tumor cell lines were maintained in vitro as a monolayer in RPMI 1640 medium supplemented with 20% heat inactivated FBS, at 37° C. in an atmosphere of 5% CO2 in air. The tumor cells were sub-cultured, not exceeding 4-5 passages, and cells growing in an exponential growth phase were harvested and counted for tumor inoculation. Each mouse was inoculated subcutaneously on the right flank with OVCAR-3 tumor cells (2×10^7) in 0.2 mL of RPMI-1640 with Matrigel (1:1) for model development.
Treatment was started when the mean tumor size reached approximately 150-200 mm^3, at which time the mice were randomized into treatment groups such that the average starting tumor size is similar for each treatment group. Animals were then treated with vehicle or indicated mg/kg (10-100) of compound at a given frequency (e.g., BID, QD, 4 days on treatment followed by 3 days off treatment) by oral gavage at a final dosing volume of 10 mL/kg.
The measurement of tumor size was conducted with a caliper and recorded twice per […] week. The tumor volume (TV) (mm^3) was estimated using the formula: TV=a×b^2/2, where “a” and “b” are long and short diameters of a tumor, respectively.
The TVs were used for calculation of the tumor growth inhibition and tumor growth delay. For the tumor growth inhibition (TGI), the value using the formula: […]
The “TVfinal” and “TVinitial” are the mean tumor volumes on the final day and initial day, respectively.
All statistical tests was conducted on GraphPad, and the level of significance was set at 5% or P<0.05. The group means and standard deviations were calculated for all measurement parameters. Two-way RM ANOVA followed by Tukeys post hoc comparisons of the means was applied among groups.
Additionally, after compound treatment, the animals were observed an additional 28 days without compound treatment.
The initial treatment period with Example 1 was 28 days, after which overall efficacy and tolerability were evaluated based on tumor volume and body weight changes observed during the treatment period (FIG. 2a and FIG. 2b).
The initial treatment period with Example 1 was 28 days, after which overall efficacy and tolerability were evaluated based on tumor volume and body weight changes observed during the treatment period (FIG. 3a and FIG. 3b).

Q: What does the source list for `Cc1cc(NC(=O)c2ccc(NS(=O)(=O)CCO)cc2N2CC[C@@]3(C(F)F)C[C@H]3C2)nc(N2CCC(F)(F)CC2)n1` (single isomer, unassigned) [Example 29b]?
A: IC50 (OVCAR-3 cells): < 100 nM; IC50 [1]: 110 nM; Tolerability based on body weight [2]: well tolerated; % T/C (OVCAR-3 xenografts): 1%; % TGI (OVCAR-3 xenografts): 99%
